# Results taken from paper PMC5584945, “Evaluation of robenidine analog NCL195 as a novel broad-spectrum antibacterial agent” (PLoS ONE, 2017).
# System: S. aureus ATCC 29213
# Test: Macromolecular synthesis inhibition
# Assay type: cell-based, Staphylococcus aureus
# Conditions: 0.25 to 8-fold MIC; exponentially growing culture
# Experimental: Morphological appearance and morphometric analysis of the cell membrane of S. pneumoniae D39 after exposure to either 1 μg/ml, 4 μg/ml or 16 μg/ml of NCL812 was determined using TEM, as described in S1 File (Supplementary Methods). For S. aureus ATCC 29213, macromolecular (DNA, RNA, protein, cell wall, and lipid) synthesis inhibition studies were performed using concentrations of NCL812 that were equivalent to 0, 0.25, 0.5, 1, 2, 4 or 8-fold the MIC value (4 μg/ml), as detailed in S1 File (Supplementary Methods).
# Effect of NCL812 on S. aureus ATCC29213 macromolecular synthesis. […]
# A 5% DMSO treated culture served as the “no drug” control for all experiments. […] After washing three times with 5 ml of cold 5% TCA, the filters were rinsed two times with 5 ml 100% ethanol, allowed to dry, and then counted using a Beckman LS3801 liquid scintillation counter.
# To test the effect of NCL812 on cell wall synthesis, bacteria were transferred to M9 minimal medium and added to 1.5 ml eppendorf tubes (100 μl/tube) containing various concentrations of test compound or control antibiotics (5 μl) at 20X the final concentration in 100% DMSO as described above. […] After washing three times with 5 ml of 0.1% SDS, the filters were rinsed two times with 5 ml of deionized water, allowed to dry, and then counted using a Beckman LS3801 liquid scintillation counter. […]
smiles,measurement,value
"Cl.N=C(NN=Cc1ccc(Cl)cc1)NN=Cc1ccc(Cl)cc1 [NCL812, 2,2'-bis[(4-chlorophenyl)methylene] carbonimidic dihydrazide hydrochloride]",Effect on macromolecular synthesis pathways,"inhibited DNA (A), RNA (B), protein (C), cell wall (D), and lipid (E) pathways"
